Reference: ChEMBL document CHEMBL1154382, “Preliminary SAR analysis of novel antiproliferative N(6),5'-bis-ureidoadenosine derivatives” (2009)
Calls of active or inactive are those of the source.

Tests used:
Format in all cases: functional
CCRF-CEM = test: Antiproliferative activity against human CCRF-CEM cells at 10 uM assessed as cell growth inhibition relative to control
HL-60(TB) = test: Antiproliferative activity against human HL-60(TB) cells at 10 uM assessed as cell growth inhibition relative to control
K562 = test: Antiproliferative activity against human K562 cells at 10 uM assessed as cell growth inhibition relative to control
MOLT-4 = test: Antiproliferative activity against human MOLT4 cells at 10 uM assessed as cell growth inhibition relative to control
RPMI8266 = test: Antiproliferative activity against human […] cells at 10 uM assessed as cell growth inhibition relative to control
A549 = test: Antiproliferative activity against human A549 cells at 10 uM assessed as cell growth inhibition relative to control
EKVX = test: Antiproliferative activity against human EKVX cells at 10 uM assessed as cell growth inhibition relative to control
PC-3 = test: Antiproliferative activity against human PC3 cells at 10 uM assessed as cell growth inhibition relative to control
HOP-62 = test: Antiproliferative activity against human HOP62 cells at 10 uM assessed as cell growth inhibition relative to control
HOP-92 = test: Antiproliferative activity against human HOP92 cells at 10 uM assessed as cell growth inhibition relative to control
NCI-H226 = test: Antiproliferative activity against human NCI-H226 cells at 10 uM assessed as cell growth inhibition relative to control
NCI-H23 = test: Antiproliferative activity against human NCI-H23 cells at 10 uM assessed as cell growth inhibition relative to control
NCI-H322M = test: Antiproliferative activity against human NCI-H322M cells at 10 uM assessed as cell growth inhibition relative to control
NCI-H460 = test: Antiproliferative activity against human NCI-H460 cells at 10 uM assessed as cell growth inhibition relative to control
NCI-H522 = test: Antiproliferative activity against human NCI-H522 cells at 10 uM assessed as cell growth inhibition relative to control
COLO 205 = test: Antiproliferative activity against human COLO205 cells at 10 uM assessed as cell growth inhibition relative to control
HCC 2998 = test: Antiproliferative activity against human HCC2998 cells at 10 uM assessed as cell growth inhibition relative to control
HCT-116 = test: Antiproliferative activity against human HCT116 cells at 10 uM assessed as cell growth inhibition relative to control
HCT-15 = test: Antiproliferative activity against human HCT15 cells at 10 uM assessed as cell growth inhibition relative to control
HT-29 = test: Antiproliferative activity against human HT-29 cells at 10 uM assessed as cell growth inhibition relative to control
KM12 = test: Antiproliferative activity against human KM12 cells at 10 uM assessed as cell growth inhibition relative to control
SW-620 = test: Antiproliferative activity against human SW620 cells at 10 uM assessed as cell growth inhibition relative to control
LOX IMVI = test: Antiproliferative activity against human LOXIMVI cells at 10 uM assessed as cell growth inhibition relative to control
Malme-3M = test: Antiproliferative activity against human MALME-3M cells at 10 uM assessed as cell growth inhibition relative to control
M14 = test: Antiproliferative activity against human M14 cells at 10 uM assessed as cell growth inhibition relative to control
SK-MEL-2 = test: Antiproliferative activity against human SK-MEL-2 cells at 10 uM assessed as cell growth inhibition relative to control
SK-MEL-28 = test: Antiproliferative activity against human SK-MEL-28 cells at 10 uM assessed as cell growth inhibition relative to control
SK-MEL-5 = test: Antiproliferative activity against human SK-MEL-5 cells at 10 uM assessed as cell growth inhibition relative to control
UACC-257 = test: Antiproliferative activity against human UACC257 cells at 10 uM assessed as cell growth inhibition relative to control
UACC-62 = test: Antiproliferative activity against human UACC62 cells at 10 uM assessed as cell growth inhibition relative to control
SF-268 = test: Antiproliferative activity against human SF268 cells at 10 uM assessed as cell growth inhibition relative to control
SF-295 = test: Antiproliferative activity against human SF295 cells at 10 uM assessed as cell growth inhibition relative to control
SF-539 = test: Antiproliferative activity against human SF539 cells at 10 uM assessed as cell growth inhibition relative to control
SNB-19 = test: Antiproliferative activity against human SNB19 cells at 10 uM assessed as cell growth inhibition relative to control
SNB-75 = test: Antiproliferative activity against human SNB75 cells at 10 uM assessed as cell growth inhibition relative to control
U-251 = test: Antiproliferative activity against human U251 cells at 10 uM assessed as cell growth inhibition relative to control
IGROV-1 = test: Antiproliferative activity against human IGROV1 cells at 10 uM assessed as cell growth inhibition relative to control
OVCAR-3 = test: Antiproliferative activity against human OVCAR-3 cells at 10 uM assessed as cell growth inhibition relative to control
OVCAR-4 = test: Antiproliferative activity against human OVCAR4 cells at 10 uM assessed as cell growth inhibition relative to control
OVCAR-5 = test: Antiproliferative activity against human OVCAR5 cells at 10 uM assessed as cell growth inhibition relative to control
OVCAR-8 = test: Antiproliferative activity against human OVCAR8 cells at 10 uM assessed as cell growth inhibition relative to control
SK-OV-3 = test: Antiproliferative activity against human SKOV3 cells at 10 uM assessed as cell growth inhibition relative to control
786-0 = test: Antiproliferative activity against human 786-0 cells at 10 uM assessed as cell growth inhibition relative to control
A498 = test: Antiproliferative activity against human A498 cells at 10 uM assessed as cell growth inhibition relative to control
ACHN = test: Antiproliferative activity against human ACHN cells at 10 uM assessed as cell growth inhibition relative to control
CAKI-1 = test: Antiproliferative activity against human Caki1 cells at 10 uM assessed as cell growth inhibition relative to control
RXF 393 = test: Antiproliferative activity against human RXF393 cells at 10 uM assessed as cell growth inhibition relative to control
SN12C = test: Antiproliferative activity against human SN12C cells at 10 uM assessed as cell growth inhibition relative to control
TK-10 = test: Antiproliferative activity against human TK10 cells at 10 uM assessed as cell growth inhibition relative to control
UO-31 = test: Antiproliferative activity against human UO31 cells at 10 uM assessed as cell growth inhibition relative to control
BT-549 = test: Antiproliferative activity against human BT549 cells at 10 uM assessed as cell growth inhibition relative to control
Hs-578T = test: Antiproliferative activity against human Hs 578T cells at 10 uM assessed as cell growth inhibition relative to control
MCF7 = test: Antiproliferative activity against human MCF7 cells at 10 uM assessed as cell growth inhibition relative to control
MDA-MB-231 = test: Antiproliferative activity against human MDA-MB-231 cells at 10 uM assessed as cell growth inhibition relative to control
MDA-MB-468 = test: Antiproliferative activity against human MDA-MB-468 cells at 10 uM assessed as cell growth inhibition relative to control
T47D = test: Antiproliferative activity against human T47D cells at 10 uM assessed as cell growth inhibition relative to control
DU-145 = test: Antiproliferative activity against human DU145 cells at 10 uM assessed as cell growth inhibition relative to control

Measured: growth inhibition (GI)

CNC(=O)NC[C@H]1O[C@@H](n2cnc3c(NC(=O)Nc4ccccc4)ncnc32)[C@@H]2OC(=O)C[C@@H]21
inactive: all assays above
